Drawing on patent US8828696B2, “Use of Penicillin G Procaine as a selective antimicrobial agent in the production of alcohol by fermentation” (Lallemand Specialites, Inc, priority 2008, dated 2014), this text covers minimum inhibitory concentration for 1 molecule.

Molecules are shown by their SMILES.

The subject of this test is Lactobacillus fermentum. Put plainly: Comparative efficacy analysis Virginiamycin vs. Penicillin G Procaine, growth in MRS broth, 24 well plate. It is filed as cell-based. The following applies: industry isolated Lactobacillus fermentum; ppm of the fermentation mixture. The source says:
The most commonly found microorganism in fuel ethanol producing plants is the Lactobacillus fermentum bacterium and is considered as an “industry normal” bacterium. This example compares the use of a Bactenix® line of products, Penicillin G Procaine-antibiotic versus Virginiamycin-antibiotic to control “industry normal” Lactobacillus fermentum bacterium. This trial uses an alcohol water mixture to assure total dissolving of antibiotics. This assures that the correct concentrations of antibiotics are going into the test wells and thereby preventing under dosing during the trial. All bacteria tested were industry specific isolates that were obtained from actual corn mash samples from fermentation alcohol production plants. The trial was set up as follows: • 1. Dissolve 0.1 g of each of the antibiotics in 1 ml water and then add 5 ml of ethanol, vortex and bring up to 10 ml with sterile water to from a suspension. • 2. Dilute the previous suspension 1:10 with sterile water. This gives a one mg/ml concentration. • 3. Filter the suspension by running through a 0.2 μm syringe filter. • 4. Add four μl broth in a centrifuge then add antibiotics to MRS (DeMan, Rogosa and Sharpe) broth at the concentrations required for the test. • 5. Take four μl of a fresh 24-hour culture of the target organisms and add to the corresponding empty wells in a pre-labeled 24 well tissue culture plate. • 6. Pipette one ml of the appropriate antibiotic media to each well of the plate. • 7. Incubate at 33° C. for 24 hours. • 8. Read plates for bacterial growth and re-incubate the plates at 33° C. • 9. After 48 hours read and report the final results.

`CC1(C)S[C@@H]2[C@H](NC(=O)Cc3ccccc3)C(=O)N2[C@H]1C(=O)O.CCN(CC)CCOC(=O)c1ccc(N)cc1` [Penicillin G Procaine]: the minimum inhibitory concentration stood at 0.1 ppm.
